According to patent US12421240B2, “Hydropyrazino[1,2-d][1,4]diazepine compounds for the treatment of autoimmune disease” (Hoffmann-La Roche Inc., priority 2019, dated 2025):

Target: T1, human TLR7 (Homo sapiens, UniProt Q9NYK1)
T1 sequence (Q9NYK1 27-1049): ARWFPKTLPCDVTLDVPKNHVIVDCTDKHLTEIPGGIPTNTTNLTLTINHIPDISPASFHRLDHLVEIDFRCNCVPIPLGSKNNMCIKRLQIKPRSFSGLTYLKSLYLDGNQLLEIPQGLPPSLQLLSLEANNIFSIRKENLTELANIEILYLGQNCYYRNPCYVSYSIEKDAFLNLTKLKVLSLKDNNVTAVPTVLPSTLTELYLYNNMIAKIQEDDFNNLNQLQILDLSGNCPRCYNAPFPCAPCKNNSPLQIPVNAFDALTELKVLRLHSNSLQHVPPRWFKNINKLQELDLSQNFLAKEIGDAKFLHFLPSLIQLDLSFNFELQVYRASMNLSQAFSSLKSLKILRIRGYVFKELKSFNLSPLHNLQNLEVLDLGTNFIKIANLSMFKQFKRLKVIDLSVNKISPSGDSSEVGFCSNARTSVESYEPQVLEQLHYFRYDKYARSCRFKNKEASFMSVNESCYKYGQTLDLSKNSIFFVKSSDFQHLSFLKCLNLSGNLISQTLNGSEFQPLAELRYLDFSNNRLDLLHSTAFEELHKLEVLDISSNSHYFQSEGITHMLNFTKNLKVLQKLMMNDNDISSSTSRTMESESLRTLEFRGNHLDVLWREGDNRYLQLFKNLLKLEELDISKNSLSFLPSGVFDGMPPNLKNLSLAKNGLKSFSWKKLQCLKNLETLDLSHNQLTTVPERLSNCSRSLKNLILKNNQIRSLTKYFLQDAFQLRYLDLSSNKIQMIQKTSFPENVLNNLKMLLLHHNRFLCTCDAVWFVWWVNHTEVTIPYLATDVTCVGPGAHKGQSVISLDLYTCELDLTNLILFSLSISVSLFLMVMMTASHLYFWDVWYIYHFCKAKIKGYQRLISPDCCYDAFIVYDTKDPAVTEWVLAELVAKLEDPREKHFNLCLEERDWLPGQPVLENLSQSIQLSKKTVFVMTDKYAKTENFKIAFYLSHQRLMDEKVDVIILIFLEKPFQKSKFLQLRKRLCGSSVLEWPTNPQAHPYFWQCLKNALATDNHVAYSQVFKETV
Assay: HEK293-Blue-hTLR-7 cells assay (SEAP reporter, R848 stimulation)
Assay type: cell-based
Conditions: HEK293-Blue-hTLR7 cells, R848 ligand, 20 hrs; read-out: HEK/hTLR7 IC50
Experimental: The following tests were carried out in order to determine the activity of the compounds of formula (I), (Ia) or (Ib) in HEK293-Blue-hTLR-7/8/9 cells assay.
HEK293-Blue-hTLR-7 Cells Assay:
A stable HEK293-Blue-hTLR-7 cell line was purchased from InvivoGen (Cat. #: hkb-htlr7, San Diego, California, USA). These cells were originally designed for studying the stimulation of human TLR7 by monitoring the activation of NF-κB. A SEAP (secreted embryonic alkaline phosphatase) reporter gene was placed under the control of the IFN-β minimal promoter fused to five NF-κB and AP-1-binding sites. The SEAP was induced by activating NF-κB and AP-1 via stimulating HEK-Blue hTLR7 cells with TLR7 ligands. Therefore the reporter expression was declined by TLR7 antagonist under the stimulation of a ligand, such as R848 (Resiquimod), for incubation of 20 hrs. The cell culture supernatant SEAP reporter activity was determined using QUANTI-Blue™ kit (Cat. #: rep-qb1, Invivogen, San Diego, Ca., USA) at a wavelength of 640 nm, a detection medium that turns purple or blue in the presence of alkaline phosphatase.
HEK293-Blue-hTLR7 cells were incubated at a density of 250,000-450,000 cells/mL in a volume of 170 μL in a 96-well plate in Dulbecco's Modified Eagle's medium (DMEM) containing 4.5 g/L glucose, 50 U/mL penicillin, […], […], 2 mM L-glutamine, 10% (v/v) heat-inactivated fetal bovine serum with addition of 20 μL test compound in a serial dilution in the presence of final DMSO at 1% and 10 μL of 20 uM R848 in above DMEM, perform incubation under 37° C. in a CO2 incubator for 20 hrs. Then 20 μL of the supernatant from each well was incubated with 180 μL Quanti-blue substrate solution at 37° C. for 2 hrs and the absorbance was read at 620655 nm using a spectrophotometer. The signaling pathway that TLR7 activation leads to downstream NF-κB activation has been widely accepted, and therefore similar reporter assay was modified for evaluating TLR7 antagonist.

| Compound | IC50 [nM] |
| --- | --- |
| C[C@@H]1CN(c2ccc(C#N)c3ncccc23)C[C@@H]2CCN(c3cncc4c3CCNC4)CCN21 [Example 4, 5-[(4R,10aS)-4-methyl-8-(5,6,7,8-tetrahydro-2,7-naphthyridin-4-yl)-1,3,4,6,7,9,10,10a-octahydropyrazino[1,2-d][1,4]diazepin-2-yl]quinoline-8-carbonitrile] | 17.8 |
| C[C@@H]1CN(c2ccc(C#N)c3ncccc23)C[C@@H]2CCN(c3cnc(N4CCNCC4)nc3)CCN21 [Example 2, 5-[(4R,10aS)-4-methyl-8-(2-piperazin-1-ylpyrimidin-5-yl)-1,3,4,6,7,9,10,10a-octahydropyrazino[1,2-d][1,4]diazepin-2-yl]quinoline-8-carbonitrile] | 58.6 |
| C[C@@H]1CN(c2ccc(C#N)c3ncccc23)C[C@@H]2CCN(Cc3cnc(N4CCNCC4)cn3)CCN21 [Example 15, 5-[(4R,10aS)-4-methyl-8-[(5-piperazin-1-ylpyrazin-2-yl)methyl]-1,3,4,6,7,9,10,10a-octahydropyrazino[1,2-d][1,4]diazepin-2-yl]quinoline-8-carbonitrile] | 2.2 |
| C[C@@H]1CN(c2ccc(C#N)c3ncccc23)C[C@@H]2CCN(c3ccc4c(n3)CCNC4)CCN21 [Example 6, 5-[(4R,10aS)-4-methyl-8-(5,6,7,8-tetrahydro-1,6-naphthyridin-2-yl)-1,3,4,6,7,9,10,10a-octahydropyrazino[1,2-d][1,4]diazepin-2-yl]quinoline-8-carbonitrile] | 48.1 |
| C[C@@H]1CN(c2ccc(C#N)c3ncccc23)C[C@@H]2CCN(c3ccc4c(n3)CNCC4)CCN21 [Example 5, 5-[(4R,10aS)-4-methyl-8-(5,6,7,8-tetrahydro-1,7-naphthyridin-2-yl)-1,3,4,6,7,9,10,10a-octahydropyrazino[1,2-d][1,4]diazepin-2-yl]quinoline-8-carbonitrile] | 38.5 |
| C[C@@H]1CN(c2cc(=O)n(C)c3ncccc23)C[C@@H]2CCN(Cc3ccc4c(c3)CNCC4)CCN21 [Example 28, 4-[(4R,10aS)-4-methyl-8-(1,2,3,4-tetrahydroisoquinolin-7-ylmethyl)-1,3,4,6,7,9,10,10a-octahydropyrazino[1,2-d][1,4]diazepin-2-yl]-1-methyl-1,8-naphthyridin-2-one] | 36.3 |
| C[C@@H]1CN(c2ccc(C#N)c3ncccc23)C[C@@H]2CCN(c3ccc(N4CCNCC4)nc3)CCN21 [Example 1, 5-[(4R,10aS)-4-methyl-8-(6-piperazin-1-yl-3-pyridyl)-1,3,4,6,7,9,10,10a-octahydropyrazino [1,2-d][1,4]diazepin-2-yl]quinoline-8-carbonitrile] | 88.5 |
| C[C@@H]1CN(c2ccc(C#N)c3ncccc23)C[C@@H]2CCN(c3ccc([C@H]4CNCCO4)cc3)CCN21 [Example 3, 5-[(4R,10aS)-4-methyl-8-[4-[(2S)-morpholin-2-yl]phenyl]-1,3,4,6,7,9,10,10a-octahydropyrazino[1,2-d][1,4]diazepin-2-yl]quinoline-8-carbonitrile] | 54 |
| C[C@@H]1CN(c2ccc(C#N)c3ncccc23)C[C@@H]2CCN(Cc3ccc4c(c3)CCNC4)CCN21 [Example 11, 5-[(4R,10aS)-4-methyl-8-(1,2,3,4-tetrahydroisoquinolin-6-ylmethyl)-1,3,4,6,7,9,10,10a-octahydropyrazino[1,2-d][1,4]diazepin-2-yl]quinoline-8-carbonitrile] | 6.1 |

Continued, values first:

| IC50 [nM] | Compound |
| --- | --- |
| 9.3 | C[C@@H]1CN(c2ccc(C#N)c3ncccc23)C[C@@H]2CCN(Cc3cnc4c(c3)CNCC4)CCN21 [Example 10, 5-[(4R,10aS)-4-methyl-8-(5,6,7,8-tetrahydro-1,6-naphthyridin-3-ylmethyl)-1,3,4,6,7,9,10,10a-octahydropyrazino[1,2-d][1,4]diazepin-2-yl]quinoline-8-carbonitrile] |
| 1.6 | C[C@@H]1CN(c2ccc(C#N)c3ncccc23)C[C@@H]2CCN(Cc3ccc(N4C[C@@H](N)[C@@H](F)C4)cn3)CCN21 [Example 20, 5-[(4R,10aS)-8-[[5-[(3R,4S)-3-amino-4-fluoro-pyrrolidin-1-yl]-2-pyridyl]methyl]-4-methyl-1,3,4,6,7,9,10,10a-octahydropyrazino[1,2-d][1,4]diazepin-2-yl]quinoline-8-carbonitrile] |
| 14.3 | C[C@@H]1CN(c2ccc(C#N)c3ncccc23)C[C@@H]2CCN(Cc3cc4c(cn3)CNCC4)CCN21 [Example 8, 5-[(4R,10aS)-4-methyl-8-(5,6,7,8-tetrahydro-2,7-naphthyridin-3-ylmethyl)-1,3,4,6,7,9,10,10a-octahydropyrazino[1,2-d][1,4]diazepin-2-yl]quinoline-8-carbonitrile] |
| 35.8 | CO[C@@H]1CN(c2cnc(CN3CC[C@H]4CN(c5ccc(C#N)n6nccc56)C[C@@H](C)N4CC3)c(F)c2)C[C@H]1N [Example 26, 4-[(4R,10aS)-8-[[5-[(3R,4R)-3-amino-4-methoxy-pyrrolidin-1-yl]-3-fluoro-2-pyridyl]methyl]-4-methyl-1,3,4,6,7,9,10,10a-octahydropyrazino[1,2-d][1,4]diazepin-2-yl]pyrazolo[1,5-a]pyridine-7-carbonitrile] |
| 4.8 | C[C@@H]1CN(c2ccc(C#N)c3ncccc23)C[C@@H]2CCN(Cc3ccc(N4CCNCC4)cn3)CCN21 [Example 19, 5-[(4R,10aS)-4-methyl-8-[(5-piperazin-1-yl-2-pyridyl)methyl]-1,3,4,6,7,9,10,10a-octahydropyrazino[1,2-d][1,4]diazepin-2-yl]quinoline-8-carbonitrile] |
| 2.9 | C[C@@H]1CN(c2ccc(C#N)c3ncccc23)C[C@@H]2CCN(Cc3ncc(N4CCNCC4)cc3F)CCN21 [Example 23, 5-[(4R,10aS)-8-[(3-fluoro-5-piperazin-1-yl-2-pyridyl)methyl]-4-methyl-1,3,4,6,7,9,10,10a-octahydropyrazino[1,2-d][1,4]diazepin-2-yl]quinoline-8-carbonitrile] |
| 11.1 | C[C@@H]1CN(c2ccc(C#N)c3ncccc23)C[C@@H]2CCN(Cc3cncc(N4CCNCC4)c3)CCN21 [Example 16, 5-[(4R,10aS)-4-methyl-8-[(5-piperazin-1-yl-3-pyridyl)methyl]-1,3,4,6,7,9,10,10a-octahydropyrazino[1,2-d][1,4]diazepin-2-yl]quinoline-8-carbonitrile] |
| 1.2 | C[C@@H]1CN(c2ccc(C#N)c3ncccc23)C[C@@H]2CCN(Cc3ccc(N4CCNCC4)nc3)CCN21 [Example 17, 5-[(4R,10aS)-4-methyl-8-[(6-piperazin-1-yl-3-pyridyl)methyl]-1,3,4,6,7,9,10,10a-octahydropyrazino[1,2-d][1,4]diazepin-2-yl]quinoline-8-carbonitrile] |
| 1.8 | C[C@@H]1CN(c2ccc(C#N)c3ncccc23)C[C@@H]2CCN(Cc3cnc(N4CCNCC4)nc3)CCN21 [Example 14, 5-[(4R,10aS)-4-methyl-8-[(2-piperazin-1-ylpyrimidin-5-yl)methyl]-1,3,4,6,7,9,10,10a-octahydropyrazino[1,2-d][1,4]diazepin-2-yl]quinoline-8-carbonitrile] |
